The subject of experiment [1] is Wister rats (Male). In words: Incision wound model, wound size measurement. The format is in vivo. Further details: unit not given here. Particulars: average of six animals. The procedure: The animals were housed in a standard individual metal cages and room was maintained at 22±1° C. with an alternating 12 h light-dark cycle. Food and water were provided ad libitum. All the experiments on animals were conducted after obtaining permission from Institutional Animal Ethical Committee of the Institute.
Animals were divided into two groups (six animals each).
All animals of two groups were anesthetized with an aesthetic ether, and a paravertebral long incision of 4.4 cm length were made through the skin and cutaneous muscle at a distance about 1.5 cm from the middle on right side of the depilated back.
All groups (A and B) of animals received sufficient amount of formulation applied externally (as depicted in table No. 2). All the test formulations were applied once a day for 10 days starting from the day of incision. Wound-healing property was evaluated by wound length and wound closure time.
Every alternative days wound size contraction was measured. By placing transparent blotting paper carefully on the wounded part of rats marking were done by permanent marker and size of reduction in wound noted.

Experiment [2] has as its system Wister rats (Male). The experiment in a line: Incision wound model, wound size measurement. The format is in vivo. Further details: unit not given here. To be noted: individual animals SR NO 1-6, applied once a day.
The conditions of experiment [3]: cited from earlier work.

“And” between values parts separate entries of the source, which are not always exact repeats. Identical values can stand only once.

With Sericin [Group C], the “wound size AVG” value in the experiment with Wister rats (Male) [1] (DAY 2) was 26.83; with Wister rats (Male) [1] (DAY 10), 6.5; with Wister rats (Male) [1] (DAY-4), 24.33; in the experiment with Wister rats (Male) [1] (DAY-6), 23.33; with Wister rats (Male) [1] (DAY-8), 16.33. For the same substance, the wound size in the experiment with Wister rats (Male) [2] (DAY 2) is 26 (2×) and 24 and 25 and 30 (2×); with Wister rats (Male) [2] (DAY 10), 9 and 6 (3×) and 7 and 5; in the experiment on Wister rats (Male) [2] (DAY-4), 21 and 23 (2×) and 27 and 28 and 24; with Wister rats (Male) [2] (DAY-6), 20 and 22 (2×) and 25 and 27 and 24; in the experiment on Wister rats (Male) [2] (DAY-8), 18 and 16 (3×) and 17 and 15.

In the case of silk sericin, in experiment [3] (ESR and ultraviolet spectrophotometry), the “scavenging of hydroxyl, superoxide and DPPH radicals” value is recorded as “strong scavenging capacity”. For the same substance, the “antioxidative activity on the peroxidation of linoleic acid” value in experiment [3] (linoleic acid system) is “potent antioxidative activity”.
